From BigSolDB 2.1 come the findings set out here.

Structures are written as SMILES.

`COc1ccc(-c2coc3cc(O)ccc3c2=O)cc1` showed a solubility (mole fraction) (in n-octanol, 298.15 K) of 0.00056; a solubility (mole fraction) (in n-octanol, 303.15 K) of 0.0006; a solubility (mole fraction) (in n-octanol, 308.15 K) of 0.00065; a solubility (mole fraction) (in n-octanol, 313.15 K) of 0.00069; a solubility (mole fraction) (in n-octanol, 318.15 K) of 0.00075; a solubility (mole fraction) (in water, 298.15 K) of 7.85e-10. Further, the solubility (mole fraction) turned out to be 3.51e-09 (in water, 303.15 K); 6.78e-09 (in water, 308.15 K); 1.08e-08 (in water, 313.15 K); 1.5e-08 (in water, 318.15 K).
With `O=C1c2c(O)cc(O)cc2OC(c2ccc(O)c(O)c2)C1O` (stereo not given), the solubility (mole fraction) runs as follows: (in n-octanol, 298.15 K) 0.0127; (in n-octanol, 303.15 K) 0.0141; (in n-octanol, 308.15 K) 0.0157; (in n-octanol, 313.15 K) 0.0176; (in n-octanol, 318.15 K) 0.0196; (in water, 298.15 K) 2.55e-05. The solubility (mole fraction) worked out at 3.18e-05 (in water, 303.15 K); 4.5e-05 (in water, 308.15 K); 6.88e-05 (in water, 313.15 K); 8.05e-05 (in water, 318.15 K).
With `O=c1c(O)c(-c2ccc(O)cc2O)oc2cc(O)cc(O)c12`, the solubility (mole fraction) is, setting by setting: (in n-octanol, 298.15 K) 0.00226; (in n-octanol, 303.15 K) 0.00235; (in n-octanol, 308.15 K) 0.00251; (in n-octanol, 313.15 K) 0.00265; (in n-octanol, 318.15 K) 0.00288; (in water, 298.15 K) 6.19e-09. This compound displayed a solubility (mole fraction) (in water, 303.15 K) of 2.24e-08; a solubility (mole fraction) (in water, 308.15 K) of 3.25e-08; a solubility (mole fraction) (in water, 313.15 K) of 4.57e-08; a solubility (mole fraction) (in water, 318.15 K) of 9.53e-08.
`O=C1C[C@@H](c2ccc(O)cc2)Oc2cc(O)cc(O)c21`: the solubility (mole fraction) runs as follows: (in n-octanol, 298.15 K) 0.00903; (in n-octanol, 303.15 K) 0.00963; (in n-octanol, 308.15 K) 0.0103; (in n-octanol, 313.15 K) 0.0109; (in n-octanol, 318.15 K) 0.0114; (in water, 298.15 K) 1.79e-07. Moreover, the solubility (mole fraction) by setting is: (in water, 303.15 K) 2.98e-07; (in water, 308.15 K) 4.96e-07; (in water, 313.15 K) 7.64e-07; (in water, 318.15 K) 1.1e-06.
On to `COc1ccc(C2CC(=O)c3c(O)cc(O)cc3O2)cc1O` (stereo not given), for which the solubility (mole fraction) runs as follows: (in n-octanol, 298.15 K) 0.00269; (in n-octanol, 303.15 K) 0.00299; (in n-octanol, 308.15 K) 0.0033; (in n-octanol, 313.15 K) 0.00379; (in n-octanol, 318.15 K) 0.0042; (in water, 298.15 K) 5.51e-08. This compound yielded a solubility (mole fraction) (in water, 303.15 K) of 1.35e-07; a solubility (mole fraction) (in water, 308.15 K) of 2.52e-07; a solubility (mole fraction) (in water, 313.15 K) of 4.66e-07; a solubility (mole fraction) (in water, 318.15 K) of 7.9e-07.
Consider `O=c1cc(-c2ccc(O)c(O)c2)oc2cc(O)cc(O)c12`, for which the solubility (mole fraction) reads like this: (in n-octanol, 298.15 K) 0.0002; (in n-octanol, 303.15 K) 0.00021; (in n-octanol, 308.15 K) 0.00023; (in n-octanol, 313.15 K) 0.00025; (in n-octanol, 318.15 K) 0.00027; (in water, 298.15 K) 4.54e-08. Moreover, the solubility (mole fraction) worked out at 6.74e-08 (in water, 303.15 K); 1.2e-07 (in water, 308.15 K); 1.91e-07 (in water, 313.15 K); 3.74e-07 (in water, 318.15 K).
Consider `O=c1cc(-c2ccc(O)cc2)oc2cc(O)cc(O)c12`, for which the solubility (mole fraction) is, setting by setting: (in n-octanol, 298.15 K) 0.00077; (in n-octanol, 303.15 K) 0.0008; (in n-octanol, 308.15 K) 0.00084; (in n-octanol, 313.15 K) 0.00094; (in n-octanol, 318.15 K) 0.00102; (in water, 298.15 K) 7.47e-09. The compound further registered a solubility (mole fraction) (in water, 303.15 K) of 1.73e-08; a solubility (mole fraction) (in water, 308.15 K) of 2.96e-08; a solubility (mole fraction) (in water, 313.15 K) of 5.87e-08; a solubility (mole fraction) (in water, 318.15 K) of 1.03e-07.
`O=c1cc(-c2ccccc2)oc2cc(O)cc(O)c12`: the solubility (mole fraction) is, setting by setting: (in n-octanol, 298.15 K) 0.00208; (in n-octanol, 303.15 K) 0.00218; (in n-octanol, 308.15 K) 0.00228; (in n-octanol, 313.15 K) 0.00234; (in n-octanol, 318.15 K) 0.00247; (in water, 298.15 K) 5.95e-10. The same compound registered a solubility (mole fraction) (in water, 303.15 K) of 1.24e-09; a solubility (mole fraction) (in water, 308.15 K) of 3.63e-09; a solubility (mole fraction) (in water, 313.15 K) of 1e-08; a solubility (mole fraction) (in water, 318.15 K) of 1.88e-08.
Consider `O=c1c(O)c(-c2ccc(O)c(O)c2)oc2cc(O)cc(O)c12`, for which the solubility (mole fraction) is 0.00526 (in n-octanol, 298.15 K); 0.00608 (in n-octanol, 303.15 K); 0.00677 (in n-octanol, 308.15 K); 0.00747 (in n-octanol, 313.15 K); 0.00823 (in n-octanol, 318.15 K); 5.29e-09 (in water, 298.15 K). Besides, the solubility (mole fraction) was 1.02e-08 (in water, 303.15 K); 1.61e-08 (in water, 308.15 K); 2.34e-08 (in water, 313.15 K); 3.78e-08 (in water, 318.15 K).
As for `O=c1c(O)c(-c2ccc(O)cc2)oc2cc(O)cc(O)c12`, the solubility (mole fraction) was determined as 0.00857 (in n-octanol, 298.15 K); 0.00895 (in n-octanol, 303.15 K); 0.00965 (in n-octanol, 308.15 K); 0.0103 (in n-octanol, 313.15 K); 0.0118 (in n-octanol, 318.15 K); 4.59e-10 (in water, 298.15 K). In addition, the solubility (mole fraction) is, setting by setting: (in water, 303.15 K) 1.17e-09; (in water, 308.15 K) 2.31e-09; (in water, 313.15 K) 4.48e-09; (in water, 318.15 K) 7.65e-09.
